Experimental data published in PubChem BioAssay AID256 (DTP/NCI, 2004).
Inconclusive results and toxic doses are left out.

System: CD2F1 mice, L1210 leukemia ip, survival T/C
Experiment: NCI In Vivo Anticancer Drug Screen. Data for tumor model L1210 Leukemia (intraperitoneal) in CD2F1 (CDF1) mice
Conditions: higher = longer survival
Outline: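 Antitumor effect is scored in animals hosting a serially transplanted tumor. Values compare compound-dosed animals against vehicle-only controls as a simple quotient.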

[1] = endpoint: mean survival time, dose: 10.0 mg/kg/injection, schedule: Q01DX009 (ip), vehicle: saline

Compound: Cc1cc2ccccc2[n+](C)c1-c1ccccc1Cl (tested in a mixture with another compound)
- T/C (endpoint: mean survival time, dose: 5.0 mg/kg/injection, schedule: Q01DX009 (ip), vehicle: saline): 104 % of control
- T/C (endpoint: mean survival time, dose: 5.0 mg/kg/injection, schedule: Q04DX003 (ip), vehicle: saline): 101 % of control
- T/C [1]: 100 % of control
- T/C (endpoint: mean survival time, dose: 10.0 mg/kg/injection, schedule: Q04DX003 (ip), vehicle: saline): 101 % of control
- T/C (endpoint: mean survival time, dose: 20.0 mg/kg/injection, schedule: Q04DX003 (ip), vehicle: saline): 105 % of control

Compound: O=C1CSCC(=O)N1
- T/C (endpoint: mean survival time, dose: 100.0 mg/kg/injection, schedule: Q04DX003 (ip), vehicle: other): 111 % of control
- T/C (endpoint: mean survival time, dose: 200.0 mg/kg/injection, schedule: Q04DX003 (ip), vehicle: other): 111 % of control
- T/C (endpoint: mean survival time, dose: 400.0 mg/kg/injection, schedule: Q04DX003 (ip), vehicle: other): 98 % of control

Compound: O=C(CO)c1ccccc1
- T/C (endpoint: mean survival time, dose: 100.0 mg/kg/injection, schedule: Q04DX003 (ip), vehicle: saline with Tween-80): 97 % of control
- T/C (endpoint: mean survival time, dose: 200.0 mg/kg/injection, schedule: Q04DX003 (ip), vehicle: saline with Tween-80): 92 % of control
- T/C (endpoint: mean survival time, dose: 400.0 mg/kg/injection, schedule: Q04DX003 (ip), vehicle: saline with Tween-80): 92 % of control

Compound: CN1COc2c(n(C)c(=O)[nH]c2=O)C1
- T/C (endpoint: median survival time, dose: 50.0 mg/kg/injection, schedule: Q01DX005 (ip), vehicle: saline): 98 % of control
- T/C (endpoint: median survival time, dose: 50.0 mg/kg/injection, schedule: Q01DX005 (ip), vehicle: suspension in saline): 101 % of control
- T/C (endpoint: median survival time, dose: 100.0 mg/kg/injection, schedule: Q01DX005 (ip), vehicle: saline): 98 % of control
- T/C (endpoint: median survival time, dose: 100.0 mg/kg/injection, schedule: Q01DX005 (ip), vehicle: suspension in saline): 103 % of control
- T/C (endpoint: median survival time, dose: 200.0 mg/kg/injection, schedule: Q01DX005 (ip), vehicle: saline): 101 % of control
- T/C (endpoint: median survival time, dose: 200.0 mg/kg/injection, schedule: Q01DX005 (ip), vehicle: suspension in saline): 102 % of control
- T/C (endpoint: median survival time, dose: 400.0 mg/kg/injection, schedule: Q01DX005 (ip), vehicle: saline): 109 % of control
- T/C (endpoint: median survival time, dose: 400.0 mg/kg/injection, schedule: Q01DX005 (ip), vehicle: suspension in saline): 119 % of control
- T/C (endpoint: median survival time, dose: 800.0 mg/kg/injection, schedule: Q01DX005 (ip), vehicle: saline): 108 % of control
- T/C (endpoint: median survival time, dose: 800.0 mg/kg/injection, schedule: Q01DX005 (ip), vehicle: suspension in saline): 116 % of control

Compound: O=NNc1ccc(Cl)cn1
- T/C (endpoint: median survival time, dose: 1.5 mg/kg/injection, schedule: Q01DX009 (ip), vehicle: water): 110 % of control
- T/C (endpoint: median survival time, dose: 1.56 mg/kg/injection, schedule: Q01DX009 (ip), vehicle: water): 104 % of control
- T/C (endpoint: median survival time, dose: 3.0 mg/kg/injection, schedule: Q01DX009 (ip), vehicle: water): 114 % of control
- T/C (endpoint: median survival time, dose: 3.12 mg/kg/injection, schedule: Q01DX009 (ip), vehicle: water): 117 % of control
- T/C (endpoint: median survival time, dose: 6.0 mg/kg/injection, schedule: Q01DX009 (ip), vehicle: water): 119 % of control
- T/C (endpoint: median survival time, dose: 12.5 mg/kg/injection, schedule: Q01DX009 (ip), vehicle: water): 104 % of control
- T/C (endpoint: median survival time, dose: 24.0 mg/kg/injection, schedule: Q01DX009 (ip), vehicle: water): 107 % of control

Compound: O=S(=O)(O)Sc1ncnc2nc[nH]c12
- T/C [1]: 117 % of control
- T/C (endpoint: mean survival time, dose: 20.0 mg/kg/injection, schedule: Q01DX009 (ip), vehicle: saline): 112 % of control
- T/C (endpoint: mean survival time, dose: 320.0 mg/kg/injection, schedule: Q01DX009 (ip), vehicle: saline): 107 % of control
- T/C (endpoint: median survival time, dose: 37.5 mg/kg/injection, schedule: Q04DX003 (ip), vehicle: saline): 119 % of control
- T/C (endpoint: median survival time, dose: 100.0 mg/kg/injection, schedule: Q01DX009 (ip), vehicle: saline): 182 % of control
- T/C (endpoint: median survival time, dose: 200.0 mg/kg/injection, schedule: Q01DX009 (ip), vehicle: saline): 154 % of control
- T/C (endpoint: median survival time, dose: 300.0 mg/kg/injection, schedule: Q04DX003 (ip), vehicle: saline): 166 % of control
